{
  "source": "patent US5939424A",
  "about": "“Compounds for treating disorders of lipid metabolism and their preparation” (Hoechst Aktiengesellschaft, priority 1996, dated 1999)",
  "note": "Counter-ions that a name gives are not always drawn.",
  "data": [
    {"tested_on": "LDL receptor mRNA", "test": "LDL receptor mRNA levels in rat livers (Northern blot, β-actin as internal standard)", "assay_type": "in vivo", "conditions": "rat liver, 30 mg/kg, 6 hours after administration; untreated control = 100%", "experimental": "To test the ability of the inventive compounds to lower plasma lipid levels, the stimulation of LDL receptor mRNA production was chosen as a surrogate. Thus, in rat livers, within a few hours the LDL receptor mRNA levels are increased by the compounds of the formula I (Table I). The stimulation is in the range from 170 to 350% of the controls (control=100%).\nThe preparation of the mRNA was carried out according to the method of Chomczynski, P. and Sacchi, N., Anal. Biochem. 162, 156-159 (1987). In organs (such as, for example, liver), the deep-frozen tissue was homogenized on dry ice beforehand in a mortar and the mRNA was further enriched by means of Oligo dT according to standard methods (cf. Sambrook, J., Fritsch, E. F. and Maniatis, T., Molecular Cloning, second Edition, Cold Spring Harbor (1989); in this collection of methods, there are also descriptions of all further relevant molecular biology standard methods used here). Five to […] of the dissolved mRNA thus obtained were denatured according to standard methods and separated on 1% horizontal agarose gels. The mRNA was transferred to Hybond N membranes (Amersham) by means of capillary blot. The specific hybridization probe used was a partial LDL receptor cDNA clone and the internal standard a plasmid which contained a β-actin gene. Both plasmids were labeled by means of a random primer kit from Amersham up to a specific activity of 5×10^9 cpm/mg. Prehybridization, hybridization and washing of the filters were carried out by standard methods. The filters were then exposed at -70° C. on Cronex 4 films (Dupont) overnight up to 14 days in the presence of an intensifying screen and the hybridization signals were quantified using a commercial laser densitometer by means of the film-blackening intensity. The quotient of the intensity of the LDL receptor band and of the actin band was then determined as an internal standard to correct yield variations.\nLiver tissue was removed and shock-frozen in liquid nitrogen. The mRNA was then isolated as described, and the relative LDL receptor mRNA levels were determined by means of the Northern blot technique. The mRNA levels of untreated control animals were set at 100%, and the stimulation of the LDL receptor mRNA in percent of the control was calculated.", "units": {"LDL receptor mRNA (stimulation in percent of the control)": "%"}, "values": [
      {"smiles": "CC1(C)CN(c2ncc(C(=O)N(CC(F)(F)F)c3cccc(OC(F)(F)F)c3)c(N)n2)C(=O)N1", "note": "[Example 4, 4-Amino-2-(4,4-dimethylimidazolidin-2-on-1-yl)-5-[N-(2,2,2-trifluoroethyl)-N-(3-trifluoromethoxyphenyl)]-pyrimidinecarboxamide]", "LDL receptor mRNA (stimulation in percent of the control)": 230},
      {"smiles": "CC1(C)CN(c2ncc(C(=O)Nc3ccc4c(c3)OC(F)(F)C(F)(F)O4)c(N)n2)C(=O)N1", "note": "[Example 15, 4-Amino-2-(4,4-dimethylimidazolidin-2-on-1-yi)-5-[N-(2,2,3,3-tetrafluorobenzo-1,4-dioxan-6-yl)]-pyrimidinecarboxamide hydrochloride]", "LDL receptor mRNA (stimulation in percent of the control)": 242},
      {"smiles": "CC1(C)CN(c2ncc(C(=O)Nc3ccc4c(c3)OC(F)(F)O4)c(N)n2)C(=O)N1", "note": "[Example 14, 4-Amino-2-(4,4-dimethylimidazolidin-2-on-1-yl)-5-[N-(2,2-difluorobenzo-1,3-dioxol-5-yl)]pyrimidinecarboxamide-hydrochloride]", "LDL receptor mRNA (stimulation in percent of the control)": 250},
      {"smiles": "CCN(C(=O)c1cnc(N2CC(C)(C)NC2=O)nc1N)c1cccc(OC(F)(F)F)c1", "note": "[Example 3, 4-Amino-2-(4,4-dimethyl-2-oxo-1-imidazolidin-2-on-1-yl)-5-[N-ethyl-N-(3-trifluoromethoxy)phenyl]pyrimidinecarboxamide hydrochloride]", "LDL receptor mRNA (stimulation in percent of the control)": 235},
      {"smiles": "CC1(C)CN(c2ncc(C(=O)Nc3cccc(SC(F)(F)F)c3)c(N)n2)C(=O)N1", "note": "[Example 22, 4-Amino-2-(4,4-dimethylimidazolidin-2-on-1-yl)-5-[N-(3-trifluorothiomethyl-phenyl)]pyrimidinecarboxamide-hydrochloride]", "LDL receptor mRNA (stimulation in percent of the control)": 235},
      {"smiles": "CC1(C)CN(c2ncc(C(=O)Nc3cccc(OC(F)(F)F)c3)c(N)n2)C(=O)N1", "note": "[Example 2, 4-Amino-2-(4,4-dimethylimidazolidin-2-on-1-yl)-5-(3-trifluoromethoxyphenylpyrimidine)carboxamide]", "LDL receptor mRNA (stimulation in percent of the control)": 250}
    ]}
  ]
}
